Laboratory results reported in ChEMBL document CHEMBL4420077, “Synaptojanin-2 inhibitors and uses thereof” (2015).
The source made the active and inactive calls. The rule behind the calls is not given here.

The compounds below were run on MDA-MB-231. Details: Homo sapiens, 10 uM.
Description: Inhibition of cell invasion of human MDA-MB-231 cells at 10 uM incubated for 96 hrs by Matrigel based assay
For C/C(=C\CO[C@@H]1O[C@H](CO)[C@@H](O)[C@H](O)[C@H]1O)C(O)CCC(C)(C)O (some centres not stated), the inhibition was “Active”.
With COc1cc(O)cc(O)c1C(=O)c1ccc(O)c(O)c1 the inhibition was “Active”.
With O=C1C[C@@H](c2ccc(O)c(O)c2)Oc2cc(O[C@@H]3O[C@H](CO)[C@@H](O)[C@H](O)[C@H]3O)cc(O)c21 the inhibition was “Active”.
In the case of COc1cc(C2c3c(cc(OC)c(O)c3OC)CC(CO)C2COC2OCC(O)C(O)C2O)cc(OC)c1O (configuration not stated), the inhibition is reported as “Active”.
In the case of Cc1cc(=O)c2c(O)cc(O)c([C@@H]3O[C@H](CO)[C@@H](O)[C@H](O)[C@H]3O)c2o1, the inhibition is reported as “Active”.
For Cc1c(O)cc2c(c1O)C(=O)[C@H](O)[C@@H](c1ccc(O)c(O)c1)O2, the inhibition was “Active”.

Each compound was assayed on MDA-MB-231. Details: Homo sapiens, 5 mg/kg.
Description: Antitumor activity against GFP-expressing human MDA-MB-231 cells xenografted in SCID mouse assessed as reduction in tumor lung micro-metastasis at 5 mg/kg injected twice per week for 6 weeks
With O=C(O)CC(CCc1ccccc1)O[C@H]1O[C@@H](CO)[C@H](O)[C@@H](O)[C@@H]1O (some centres not stated) the inhibition was “Active”.
